Data as given in publication PMC12059926, “Development and Biological Assessment of Thiazole-Based Pyridines for Targeted Therapy in Lung Cancer” (ACS Omega, 2025).
Values after ≈ are worked out from the molar mass of the structure shown.

Legend:
[1] = tested on: A549 lung cancer cell line; experiment: MTT cytotoxicity assay on A549 lung cancer cells; type: cell-based, human; conditions: for IC50: Homo sapiens, A549 cells, MTT, mean ± SD
Procedure: (§1) The synthesized final compounds (2a–2o) were initially evaluated for their cytotoxic effects to assess their anticancer activity against A549 lung cancer cells. The healthy cell line L929 (mouse fibroblast cell line) was also used to determine the selective antiproliferative properties of the compounds.
(§2) The human lung cancer cell line A549 and mouse fibroblast cell line L929 were used to evaluate the cytotoxicity of the compounds. Cells propagated under the specified conditions were cultured in 96-well plates at 5 × 10^3 cells/well. […] At the end of the incubation period, cell viability was determined by measuring the absorbance of the purple color formed by the breakdown of the MTT dye at 540 nm. Half-maximal inhibitory concentrations (IC50) were determined based on the tested concentrations of the compounds. The tests were triplicated.[38] The MTT assay for cytotoxicity of compounds was determined according to previously published procedures.[39],[40]
(§3) The concentration that inhibits 50% of the cell population was calculated as IC50 using GraphPad Prism 9.0 statistical software program, and standard deviation values were analyzed. Data are expressed as mean ± SD. Comparisons were made using one-way ANOVA for continuous variables with normal distribution, and Tukey’s test was used for post hoc analysis of group differences. p < 0.05 was considered statistically significant.
(§4) The cell viability value of the control group was considered 100%, and all viability values were calculated using the formula below. The experiment was performed in 3 replicates. [drawing 2]

[2] = tested on: L929 (mouse fibroblast cell line); experiment: MTT cytotoxicity assay on L929 healthy cells; type: cell-based; conditions: mean ± SD
Procedure: as §1, §2, §3, §4

A549 cells [3] = experiment: Annexin V-FITC/propidium iodide apoptosis detection by flow cytometry; type: cell-based, human; conditions: IC50 dose, 24 h
Procedure: To determine whether the antiproliferative effects of the compounds on the A549 cell line proceed through the apoptotic or necrotic pathway, the assay was performed with Annexin V-FITC/propidium iodide dyes in a flow cytometry device. […] At least 10,000 cells were analyzed, and quadrant analysis was performed. The results are presented as early apoptotic cells, late apoptotic cells, viable cells, and necrotic cells in Table 3, and as a diagram in Figure 1. In control cells, the number of viable cells was 92.04%, necrotic cells were 1.16%, early apoptotic cells were 3.43%, and late apoptotic cells were 3.28%. […] Among the compounds, 2m was the most apoptosis-inducing compound, with 14.99% early apoptotic and 10.63% late apoptotic cell percentages. […] This compound was followed by compound 2c with a 13.79% early apoptotic cells and 4.03% late apoptotic cells. Among the compounds, compound 2o induced early apoptosis the least (1.87%) and necrosis the most (3.10%). […] Nonapoptotic cell death methods, such as necroptosis and pyroptosis, can be considered for the aforementioned compounds.
The compounds were treated with A549 cells at IC50 doses, and early and late apoptosis, necrosis, and viable cell ratios were determined as percentages. Cells were seeded at 37 °C in humidified air containing 5% CO2 with 10^5 cells/plate in each well. A549 cells were collected, washed twice with ice-cold PBS, and resuspended in 100 μL of binding buffer. Five μL (5 μg/mL) of Annexin V-FITC and PI were added to the cells and incubated for 15 min in the dark at room temperature (20–25 °C). Then, 400 μL of binding buffer was added to the mixture samples and analyzed on a flow cytometer. Quadrant analyses were also presented.[41] Compounds 2a, 2b, 2c, 2j, 2m, and 2o, with a satisfactory cytotoxic profile, were examined via flow cytometry to assess the apoptosis/necrosis cell ratio using previously published procedures.[42]
(§5) The apoptotic results (Annexin V-FITC, Caspase 3, JC-1) were evaluated by flow cytometry using FACS Diva Version 6.1.1. software, and the apoptotic cells were determined as the percentage of cells.

A549 cells [4] = experiment: Mitochondrial membrane potential (JC-1) by flow cytometry; type: cell-based, human; conditions: IC50 dose, JC-1
From the text: The mitochondrial membrane potential provides information about the state of electrons during ATP production through oxidative phosphorylation, which is essential for cellular viability. Mitochondrial dysfunction occurs when this electrical regulation is disturbed and can occur in various diseases and the process of apoptosis.[23] […] Compounds 2m, 2g, and 2c followed this, with depolarization levels exceeding 21%. The mitochondrial dysfunction in compound 2m can be considered a contributing factor to apoptosis.
Cell staining with JC-1 was performed according to the manufacturer’s recommendations for the BD , Pharmingen Flow Cytometry Kit. […] Compounds were applied at IC50 doses of no more than 1 × 10^6/mL per well in 6-well plates. After treatment, each cell suspension was transferred to a 15 mL polystyrene centrifuge tube, the cells were centrifuged at 400g for 5 min, and the supernatant was removed. 0.5 mL of freshly prepared working solution was added to each pellet, and the solution was vortexed. The test cells were soaked in JC-1 working solution at 37 °C for 10–15 min, and the cells were washed twice. After centrifugation at 400g for 5 min, each cell pellet was suspended in 0.5 mL of 1X assay buffer and vortexed. The cells were then analyzed by flow cytometer.
as §5

caspase-3 in A549 cells = experiment: Caspase-3 activation; type: cell-based, human; conditions: 24 h
From the text: Caspases can take part in the cell death mechanism through both intrinsic and extrinsic pathways, with caspase-3 being the first enzyme activated in the apoptosis process.[24] Activation of the caspase-3 enzyme by the compounds, indicated as caspase-3 positive, and inhibition, indicated as caspase-3 negative, are presented in percentage terms in Table 5.
A Spectrofluorometric Caspase-3 assay kit (BD Pharmingen, Franklin Lakes, NJ) was used for determining Caspase-3 activation by measuring the caspase-3 or DEVD-cleaving activity. Initially, A549 cells at a concentration of 1 × 10^6 cells/mL underwent a washing process using phosphate-buffered saline (PBS). Subsequently, they were suspended in a cold solution known as cell lysis buffer and kept on ice for a duration of 30 min. […] In each reaction, a mixture of […] of diluted Ac DEVD-AMC (a synthetic tetrapeptide fluorogenic substrate used to measure caspase-3 activity) and 0.2 mL of 1x HEPES buffer was added to a well. Then, […] of cell lysate was introduced into each well/reaction. The reaction mixtures were incubated at 37 °C for 1 h. The amount of AMC released from Ac-DEVD-AMC was measured by using a microplate reader (PerkinElmer/Victor/X3) with an excitation wavelength of 380 nm and an emission wavelength of 460 nm. Apoptotic cell lysates containing active caspase-3 produced significant emissions compared to controls. In addition, the AMC emission of nonapoptotic control cell lysates was taken as 100%, and the emission of other cell lysates was measured relative to the emission of control cells. All experiments were repeated in duplicate. Active compounds, which are the most cytotoxic compounds, were evaluated for caspase-3 activation using previously published procedures.[40],[44]
as §5

MMP-9 enzyme = molecular target: T1, MMP-9 enzyme (Homo sapiens, UniProt P14780); experiment: MMP-9 enzyme inhibition, colorimetric kit; type: biochemical; conditions: for inhibition at 100 µM: compounds at 100 μM, mean ± SD
T1 construct: purchased Enzo Life Sciences Inc. (Farmingdale, NY, USA)
Procedure: Compounds (2a–2o) were tested to determine their MMP-9 enzyme inhibition potential. The compounds were tested at a concentration of 100 μM, and the standard molecule NNGH at a concentration of 1.3 μM.
MMP-9 inhibition was assessed using a colorimetric kit from Enzo Life Sciences Inc. (Farmingdale, NY, USA), following procedures similar to those described in previous studies.[25],[26] A thiopeptide was used as a chromogenic substrate (Ac-PLG-[2-mercapto-4-methyl-pentanoyl]-LG-OC2H5). 2-Nitro-5-thiobenzoic acid, formed by the reaction of the sulfhydryl group produced as a result of hydrolysis of the thioester by the MMP-9 enzyme and then reaction with DTNB [5,5′-dithiobis(2-nitrobenzoic acid), Ellman’s reagent], gives absorbance at 412 nm in a microplate reader (BioTek, PowerWave, Gen5 software, Winooski, VT, USA). Based on these absorptions, MMP-9 inhibition concentrations were determined. The assays were performed in triplicate. NNGH (N-isobutyl-N-(4-methoxyphenylsulfonyl)glycyl hydroxamic acid) was used as a control inhibitor. Data were shown as mean ± SD. The inhibitor % remaining activity of MMPs was calculated using the following equation:
Inhibitor% activity remaining = (V inhibitor/V control) × 100.
The inhibition (percent) of MMPs was calculated using the following equation: [drawing 1]

T1 sequence (P14780 107-444 limits assumed): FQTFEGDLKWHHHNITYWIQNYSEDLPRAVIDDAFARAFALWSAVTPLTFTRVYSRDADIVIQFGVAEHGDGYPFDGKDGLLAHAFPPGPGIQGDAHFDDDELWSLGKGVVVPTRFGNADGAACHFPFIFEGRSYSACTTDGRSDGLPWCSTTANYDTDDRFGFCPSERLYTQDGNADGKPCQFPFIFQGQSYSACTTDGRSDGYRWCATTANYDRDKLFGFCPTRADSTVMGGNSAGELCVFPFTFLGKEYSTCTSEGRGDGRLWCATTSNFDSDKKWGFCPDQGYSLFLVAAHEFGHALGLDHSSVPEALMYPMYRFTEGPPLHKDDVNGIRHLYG

`C(=NNc1nc(-c2ccc(-c3ccccc3)cc2)cs1)c1ccccn1` [Compound 2c, 4-([1,1’-Biphenyl]-4-yl)-2-(2-(pyridin-2-ylmethylene)hydrazinyl)thiazole] showed an IC50 [1] of 10.1 ± 0.38 µg/mL (≈ 28.4 µM), an IC50 [2] of 125 ± 0.64 µg/mL (≈ 351 µM) and a Q1-LL viable cells (A549 cells [3]) of 81.54%. For the same compound, the “Q1-LR early apoptotic cells” value (A549 cells [3]) was 13.79%, the Q1-UL necrotic cells (A549 cells [3]) was 0.64% and the “Q1-UR late apoptotic cells” value (A549 cells [3]) was 4.03%. For the same compound, the “% Mitochondrial membrane polarized cells” value (A549 cells [4]) was 79.61%, the “% Caspase-3 negative cells” value (caspase-3 in A549 cells) was 91.76% and the “% Caspase-3 positive cells” value (caspase-3 in A549 cells) was 5.95%. The inhibition at 100 µM (MMP-9 enzyme) was 23.1 ± 2.08%.

`C(=NNc1nc(-c2ccc(-c3ccccc3)cc2)cs1)c1ccncc1` [Compound 2m, 4-([1,1’-Biphenyl]-4-Yl)-2-(2-(pyridin-4-ylmethylene)hydrazinyl)thiazole] was tested, and the IC50 [1] was 12.1 ± 0.43 µg/mL (≈ 33.8 µM), the IC50 [2] was 31.2 ± 0.55 µg/mL (≈ 87.7 µM) and the Q1-LL viable cells (A549 cells [3]) was 73.32%. For the same compound, the “Q1-LR early apoptotic cells” value (A549 cells [3]) was 14.99%, the Q1-UL necrotic cells (A549 cells [3]) was 1.07% and the “Q1-UR late apoptotic cells” value (A549 cells [3]) was 10.63%. The “% Mitochondrial membrane polarized cells” value (A549 cells [4]) was 75.72%, the “% Caspase-3 negative cells” value (caspase-3 in A549 cells) was 69.82% and the “% Caspase-3 positive cells” value (caspase-3 in A549 cells) was 0.86%. It also gave an inhibition at 100 µM (MMP-9 enzyme) of 9.4 ± 1.22%.

For `CS(=O)(=O)c1ccc(-c2csc(NN=Cc3cccnc3)n2)cc1` [Compound 2g, 4-(4-(Methylsulfonyl)phenyl)-2-(2-(pyridin-3-ylmethylene)hydrazinyl)thiazole], the IC50 [1] was 8.4 ± 0.34 µg/mL (≈ 23.4 µM), the IC50 [2] was 56.4 ± 0.59 µg/mL (≈ 157 µM) and the Q1-LL viable cells (A549 cells [3]) was 88.98%. The “Q1-LR early apoptotic cells” value (A549 cells [3]) was 7.20%, the Q1-UL necrotic cells (A549 cells [3]) was 0.98% and the “Q1-UR late apoptotic cells” value (A549 cells [3]) was 2.84%. The “% Mitochondrial membrane polarized cells” value (A549 cells [4]) was 76.68%, the “% Caspase-3 negative cells” value (caspase-3 in A549 cells) was 73.16% and the “% Caspase-3 positive cells” value (caspase-3 in A549 cells) was 0.38%. For the same compound, the inhibition at 100 µM (MMP-9 enzyme) was 8.63 ± 1.32%.

For `Oc1ccc(-c2csc(NN=Cc3cccnc3)n2)cc1O` [Compound 2i, 4-(2-(2-(Pyridin-3-ylmethylene)hydrazinyl)thiazol-4-yl)benzene-1,2-diol], the IC50 [1] was 7.2 ± 0.95 µg/mL (≈ 23.1 µM), the IC50 [2] was > 250 µg/mL and the inhibition at 100 µM (MMP-9 enzyme) was 40.6 ± 3.01%.

For `COc1ccc(OC)c(-c2csc(NN=Cc3ccccn3)n2)c1` [Compound 2a, 4-(2,5-Dimethoxyphenyl)-2-[2-(pyridin-2 ylmethylene)hydrazinyl]thiazole], the IC50 [1] was 7.3 ± 0.33 µg/mL (≈ 21.4 µM), the “SI: selectivity index” value ([1]; L929 versus A549) was 0.60 and the IC50 [2] was 4.36 ± 0.32 µg/mL (≈ 12.8 µM). For the same compound, the “MMP-9 inhibition, result in words” value (MMP-9 enzyme; compared with 2f) was “less active than 2f (2,5-dimethoxypehnyl) or inactive”.
